In patent publication US10435431B2, “3,3 disubstituted 19-nor pregnane compounds, compositions, and uses thereof” (Sage Therapeutics, Inc., priority 2011, dated 2019):

What was measured:
[1] = target: [35S]-TBPS binding, rat brain cortical membranes; experiment: Steroid inhibition of [35S]-TBPS binding; conditions: 2 nM [35S]-TBPS, in the presence of 5 μM GABA
Procedure: Steroid Inhibition of TBPS Binding
TBPS binding assays using rat brain cortical membranes in the presence of 5 μM GABA has been described (Gee et al, J. Pharmacol. Exp. Ther. 1987, 241, 346-353; Hawkinson et al, Mol. Pharmacol. 1994, 46, 977-985).
Briefly, cortices are rapidly removed following decapitation of carbon dioxide-anesthetized Sprague-Dawley rats (200-250 g). The cortices are homogenized in 10 volumes of ice-cold 0.32 M sucrose using a glass/teflon homogenizer and centrifuged at 1500×g for 10 min at 4° C. The resultant supernatants are centrifuged at 10,000×g for 20 min at 4° C. to obtain the P2 pellets. The P2 pellets are resuspended in 200 mM NaCl/50 mM Na—K phosphate pH 7.4 buffer and centrifuged at 10,000×g for 10 min at 4° C. This ishing procedure is repeated twice and the pellets are resuspended in 10 volumes of buffer. Aliquots (100 μL) of the membrane suspensions are incubated with 2 nM [^35S]-TBPS and 5 μL aliquots of test drug dissolved in dimethyl sulfoxide (DMSO) (final 0.5%) in the presence of 5 μM GABA. The incubation is brought to a final volume of 1.0 mL with buffer. Nonspecific binding is determined in the presence of 2 μM unlabeled TBPS and ranged from 15 to 25%. Following a 90 min incubation at room temp, the assays are terminated by filtration through glass fiber filters (Schleicher and Schuell No. 32) using a cell harvester (Brandel) and rinsed three times with ice-cold buffer. Filter bound radioactivity is measured by liquid scintillation spectrometry. Non-linear curve fitting of the overall data for each drug averaged for each concentration is done using Prism (GraphPad). […] The concentration of test compound producing 50% inhibition (IC50) of specific binding and the maximal extent of inhibition (Imax) are determined for the individual experiments with the same model used for the overall data and then the means±SEM.s of the individual experiments are calculated.
Various compounds are or can be screened to determine their potential as modulators of [^35S]-TBPS binding in vitro. These assays are or can be performed in accordance with the above discussed procedures.

[2] = target: T1, Recombinant α1β2γ2 GABAA Receptors (Homo sapiens, UniProt P14867+P47870); experiment: Patch clamp electrophysiology of recombinant α1β2γ2 GABAA receptors, potentiation of GABA mediated currents; type: cell-based; conditions: Ltk cells, GABA EC10=0.5 μM, whole cell patch clamp; for % potentiation at 100 nM: test article 100 nM; for % potentiation at 1000 nM: test article 1000 nM; for % potentiation at 10000 nM: test article 10000 nM
T1 construct: expressed in transfected cells; host or cells: Ltk cells
Procedure: Patch Clamp Electrophysiology of Recombinant α1β2γ2 GABAA Receptors
Cellular electrophysiology is used to measure in vitro potency and efficacy of our GABAA receptor modulators in Ltk cells. Each compound is tested for its ability to affect GABA mediated currents at a submaximal agonist dose (GABA EC10=0.5 μM) in a whole cell patch clamp technique using a EPC-10, HEKA Electronics Amplifier and PatchMaster software. These experiments measure potency, efficacy (Emax), direct gating properties and acute desensitization. Test article is added at 0.1, 1.0 and 10 uM.

T1 sequence (P14867 28-456): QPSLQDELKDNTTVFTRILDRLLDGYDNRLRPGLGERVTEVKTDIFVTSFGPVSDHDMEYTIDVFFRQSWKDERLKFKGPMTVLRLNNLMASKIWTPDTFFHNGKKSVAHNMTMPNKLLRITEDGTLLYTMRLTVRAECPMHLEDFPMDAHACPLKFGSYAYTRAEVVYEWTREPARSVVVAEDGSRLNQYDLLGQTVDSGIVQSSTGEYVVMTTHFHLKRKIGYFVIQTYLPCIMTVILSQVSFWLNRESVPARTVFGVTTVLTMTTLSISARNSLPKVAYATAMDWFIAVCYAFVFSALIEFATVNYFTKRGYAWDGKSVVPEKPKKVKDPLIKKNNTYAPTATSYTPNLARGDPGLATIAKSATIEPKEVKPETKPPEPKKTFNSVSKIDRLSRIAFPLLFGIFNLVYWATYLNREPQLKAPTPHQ
T1 sequence (P47870 25-512 limits assumed): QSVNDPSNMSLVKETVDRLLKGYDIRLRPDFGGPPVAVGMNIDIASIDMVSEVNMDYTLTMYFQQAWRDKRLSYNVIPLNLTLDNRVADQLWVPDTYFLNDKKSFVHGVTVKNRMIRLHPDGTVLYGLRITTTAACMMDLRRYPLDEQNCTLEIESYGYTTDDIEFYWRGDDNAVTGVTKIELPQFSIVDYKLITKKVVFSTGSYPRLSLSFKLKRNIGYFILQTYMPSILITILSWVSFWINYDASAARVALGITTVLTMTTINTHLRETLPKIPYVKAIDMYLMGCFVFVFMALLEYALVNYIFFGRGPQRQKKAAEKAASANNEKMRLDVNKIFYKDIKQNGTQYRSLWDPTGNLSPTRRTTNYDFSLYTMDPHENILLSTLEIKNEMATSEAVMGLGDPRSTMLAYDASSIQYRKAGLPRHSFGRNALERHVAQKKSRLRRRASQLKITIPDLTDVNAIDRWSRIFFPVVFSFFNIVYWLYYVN
T1 sequence (P18507 40-475 partner): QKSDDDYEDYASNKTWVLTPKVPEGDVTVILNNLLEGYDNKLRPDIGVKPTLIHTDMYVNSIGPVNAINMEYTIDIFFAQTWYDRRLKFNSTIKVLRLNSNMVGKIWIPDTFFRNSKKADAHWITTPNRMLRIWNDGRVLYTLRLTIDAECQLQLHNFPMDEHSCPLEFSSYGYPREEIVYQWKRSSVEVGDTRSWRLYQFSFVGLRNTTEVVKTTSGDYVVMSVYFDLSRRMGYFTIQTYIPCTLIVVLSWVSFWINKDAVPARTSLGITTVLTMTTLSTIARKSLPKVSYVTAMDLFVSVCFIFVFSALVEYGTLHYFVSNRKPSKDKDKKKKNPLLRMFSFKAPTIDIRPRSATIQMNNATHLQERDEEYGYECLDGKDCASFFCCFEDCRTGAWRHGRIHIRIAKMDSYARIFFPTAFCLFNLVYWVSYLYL

Row | Compound | IC50 [1] | % potentiation at 100 nM [2] | % potentiation at 1000 nM [2] | % potentiation at 10000 nM [2]
1 | C[C@@]1(O)CC[C@H]2[C@H](CC[C@@H]3[C@@H]2CC[C@]2(C)[C@@H](C(=O)CO)CC[C@@H]32)C1 | 86 nM | 101% | 163% | 
2 | CC(=O)[C@H]1CC[C@H]2[C@@H]3CC[C@@H]4C[C@@](O)(C(F)F)CC[C@@H]4[C@H]3CC[C@]12C | 33 nM |  |  | 
3 | COC[C@@]1(O)CC[C@H]2[C@H](CC[C@@H]3[C@@H]2CC[C@]2(C)[C@@H](C(=O)CO)CC[C@@H]32)C1 | 170 nM |  |  | 
4 | COC[C@@]1(O)CC[C@H]2[C@H](CC[C@@H]3[C@@H]2CC[C@]2(C)[C@@H](C(C)=O)CC[C@@H]32)C1 | 41 nM |  |  | 
5 | CC(=O)[C@H]1CC[C@H]2[C@@H]3CC[C@H]4C[C@](C)(O)CC[C@@H]4[C@H]3CC[C@]12C | 93 nM | 80% | 157% | 270%
6 | C[C@@]1(O)CC[C@H]2[C@@H](CC[C@@H]3[C@@H]2CC[C@]2(C)[C@@H](C(=O)CO)CC[C@@H]32)C1 | 220 nM |  | 130% | 227%
7 | C[C@]12CC[C@H]3[C@@H](CC[C@H]4C[C@@](O)(C(F)F)CC[C@@H]43)[C@@H]1CC[C@@H]2C(=O)CO | > 10000 nM |  | 0% | 100%
8 | COC[C@@]1(O)CC[C@H]2[C@@H](CC[C@@H]3[C@@H]2CC[C@]2(C)[C@@H](C(=O)CO)CC[C@@H]32)C1 | 94 nM |  |  | 
9 | CC(=O)[C@H]1CC[C@H]2[C@@H]3CC[C@@H]4C[C@](O)(CF)CC[C@@H]4[C@H]3CC[C@]12C | 100 nM |  |  | 
